Patent US20100204295A1, “TREATMENT OF ALLERGIC DISEASE WITH IMMUNOMODULATOR COMPOUNDS” (SCICLONE PHARMACEUTICALS, INC., priority 2007, published 2010)

Experiments:
[1] = system: experimental allergic asthma (BAL cells); assay: Cytological composition of bronchoalveolar lavage in allergic ovalbumin asthma model; type: in vivo, mice of the Balb/C line; settings: for Total cellularity of the BAL: animals 6-8 weeks, mean±SD; for Eosinophils, % of BAL cells / Lymphocytes, % of BAL cells / Monocytes/Macrophages, % of BAL cells / Neutrophils, % of BAL cells: animals 6 to 8 weeks; for Eosinophils in BAL, thousand / Lymphocytes in BAL, thousand / Monocytes/Macrophages in BAL, thousand / Neutrophils in BAL, thousand / Total number of cells in the lavages: animals 18 to 20 weeks
Description: Female, non-pathogenic mice of the Balb/C line (“Pushchtino” laboratory animal breeders) were kept under conditions of an SPF-vivarium at a constant temperature, 12-hour day/night cycle, and received sterile feed and water ad libitum. In two series of experiments, mice from 6-8 weeks and 18-20 weeks of age were used at the beginning of the experiment, respectively.
The animals were immunized twice at 5-day intervals with an ovalbumin solution (Sigma) in an adjuvant based on ammonium sulfate at a dosage of 8 μg per mouse. SCV-07 was administered intra-abdominally in a volume of 200 μL at a dosage of 0.1 or 1.0 μg/kg in PBS once a day from 6 through 11 days after the first immunization. The control group received physiological saline on the same days. Each group comprised 6 to 10 animals. On the 12th, 16th and 20th days after the first immunization, the animals were then placed in a hermetic box, in which an aerosol of 1% ovalbumin solution (OvA) in PBS was generated with an ultrasonic nebulizer LD-207U (Little Doctor) for 1 minute with continuous mixing of air. The duration of exposure of the animals to the aerosol was 15 minutes. Analysis of the severity of experimental allergic asthma was carried out 24 hours after the last aerosol exposure.
The mice were killed by intra-abdominal administration of a lethal dose of sodium barbital. Bronchoalveolar lavage (BAL) was obtained by washing the lungs through the trachea with 1 mL PBS solution. The BAL cells were precipitated by centrifuging, the precipitate was resuspended, the cell concentration was counted in a Goryaev chamber, and smears were prepared. The smears were dried, fixed and stained with Romanovskii dye. The cytological composition of the bronchoalveolar lavage was investigated under a light microscope with oil immersion (eyepiece×16, objective×100). The numbers of monocyte/macrophages, neutrophils, eosinophils and lymphocytes per 200 cells were counted, in which no less than 5 visual fields were viewed. The relative number of cells of each cell population was expressed as the percentage of the total number of cells.
The statistical processing of the results was carried out with the Microsoft Excel and SPSS programs for Windows v.13. The normality of the distribution was determined with the Kholmogorov-Smimov criterion. To evaluate the significance of the differences between groups for normally distributed values, we used the two-sided Student test with unequal deviations, for non-normally distributed differences—the Mann-Whitney test. The differences were considered significant at p<0.05. Unless otherwise stated, the data are presented in the form of means±standard deviation.

[2] = system: immunization with sheep red blood cells; settings: in vivo; cited from earlier work
[3] = system: RBCs and protein in the BAL; assay: Lung injury / microvascular permeability: RBCs and total protein in BAL, guinea pig model; type: in vivo, Dunkin-Hartley guinea pigs
Description: Animals were sensitized on day 0 ip with 50 mg/kg OVA. On Days 17, 18, 19, and 20, animals received an ip injection between 8 and 10 am with PBS, SCV-07 at 1 ug/kg, or SCV-07 at 10 ug/kg (Peptide treatment). Between 8 and 10 a.m. on Day 21, animals were administered peptide 2 hours before OVA or saline (NSS) aerosol challenge. 30 min before OVA or NSS aerosol challenge each animal was injected ip with an antihistamine (6.1 mg/kg pyrilamine maleate) to prevent death due to the anaphylactic response that accompanies aerosol OVA challenge. Animals were exposed to aerosol in pairs with either 1% OVA solution or NSS for 5 min in a plexiglass chamber (22×22×29 cm) using a DeVilbiss Model 35B Ultrasonic Nebulizer. Animals were observed during the total 5 min aerosolization and comments recorded. Within 22-24 hours after challenge, animals were euthanized, bled by cardiac puncture, lavaged and lung lobes removed for measurement of cellular infiltration. At the time of OVA or NSS challenge and euthanasia, animal weights ranged from approximately 350-550 g, with the average weight approximately 420 g. This experimental protocol is similar to that used in previously published studies (Regal and Fraser, 1996; Regal et al., 2000). […] Total white blood cells in BAL were counted by standard methods in a hemacytometer using Turk's solution. […] Four hundred cells were counted and identified as eosinophils, neutrophils, or mononuclear cells. […] EPO activity from the homogenized lung after lavage was expressed as total OD/min from the left caudal lobe. MPO activity from the homogenized lung after lavage was expressed as total units of enzyme activity from the right caudal lobe. […] OD412 of the BAL supernatant was also determined to estimate the number of RBCS that were lysed during the lavage procedure and prior to re-suspension of the cells for counting. […] Lung injury and/or changes in microvascular permeability were assessed by determining the RBCs in the BAL (FIG. 7A-B) as well as the overall protein content of the BAL fluid (FIG. 7C). […]

N[C@H](CCC(=O)N[C@@H](Cc1c[nH]c2ccccc12)C(=O)O)C(=O)O [SCV-07, γ-D-glutamyl-L-tryptophan]
Total cellularity of the BAL ([1]; SCV-07 0.1 μg/kg intra-abdominally): 1.96±0.99 million | Total cellularity of the BAL ([1]; SCV-07 1 μg/kg): 2.21±1.16 million | Eosinophils, % of BAL cells ([1]; 0.1 μg/kg): 57.4 ± 21.3% | Lymphocytes, % of BAL cells ([1]; 0.1 μg/kg): 0.4 ± 0.5% | Monocytes/Macrophages, % of BAL cells ([1]; 0.1 μg/kg): 41.2 ± 20.7% | Neutrophils, % of BAL cells ([1]; 0.1 μg/kg): 0.9 ± 0.8% | Eosinophils, % of BAL cells ([1]; 1 μg/kg): 56.7 ± 9.5 % | Lymphocytes, % of BAL cells ([1]; 1 μg/kg): 0.6 ± 0.7% | Monocytes/Macrophages, % of BAL cells ([1]; 1 μg/kg): 40.6 ± 9.4 % | Neutrophils, % of BAL cells ([1]; 1 μg/kg): 2.1 ± 0.9% | Eosinophils in BAL, thousand ([1]; 0.1 μg/kg): 456 ± 144 thousand | Lymphocytes in BAL, thousand ([1]; 0.1 μg/kg): 22 ± 11 thousand | Monocytes/Macrophages in BAL, thousand ([1]; 0.1 μg/kg): 629 ± 134 thousand | Neutrophils in BAL, thousand ([1]; 0.1 μg/kg): 17 ± 14 thousand | Total number of cells in the lavages ([1]; 0.1 μg/kg, p<0.05 vs control): 1.12±0.15 million | Eosinophils in BAL, thousand ([1]; 1 μg/kg): 690 ± 247 thousand | Lymphocytes in BAL, thousand ([1]; 1 μg/kg): 26 ± 9 thousand | Monocytes/Macrophages in BAL, thousand ([1]; 1 μg/kg): 586 ± 144 thousand | Neutrophils in BAL, thousand ([1]; 1 μg/kg): 18 ± 10 thousand | Total number of cells in the lavages ([1]; 1 μg/kg): 1.32±0.23 million | Effect in a model of immunization with sheep red blood cells [2]: strong immunostimulatory effect | OD412 of the BAL supernatant ([3]; change from NSS to OVA): significantly reduced | Number of RBCs in the BAL (OD412 of lysed cell pellet), change from NSS to OVA ([3]; either 1 or 10 ug/kg): significantly attenuated | Total protein in the BAL fluid ([3]; guinea pig, in vivo): not affected
